The subject of data set [1] is C4-2 castrate resistant prostate cancer cells. The data set is described as follows: Cell viability (CellTiter-Glo, 72 h) of drug combinations vs Bliss expected. In kind it is cell-based. The settings on record: for tumor cell killing of PLK inhibitor combined with abiraterone, vs expected additive: C4-2 CRPC cells, 72 hours, Bliss independence. A general note: Cellular ATP, detected with luciferase, serves as a proxy for viable cell number.

Data set [2] has as its system panel of >50 other kinases. The settings on record: concentrations up to 10 μM; in vitro; cited from earlier work.
In data set [3] the test system is HCT116, NCI-H460, and taxane-resistant CXB1 colon carcinoma xenografts. To be noted: mouse model; ~25 mg/kg/day; cited from earlier work.
For data set [4] the following is noted: advanced solid tumors; cited from earlier work.
The conditions of data set [5]: cited from earlier work.
For data set [6] the following is noted: cited from earlier work. This is another data set of the same source.
The conditions of data set [7]: doses of 24 to 48 mg/m^2 for 5 consecutive days every 4 weeks; cited from earlier work.
The conditions of data set [8]: cited from earlier work. The source holds these as a separate data set.
Data set [9] deals with C4-2 CRPC cells. In words: Identification of mitotic (pHH3) and apoptotic (cleaved caspase-3) cells by flow cytometry. In kind it is cell-based. To be noted: drug added to onvansertib. The method, then: C4-2 CRPC cells were plated in 6-well plates at a density of 300,000 cells per well and a total volume of 3 mls. The following day the indicated drugs were diluted in the appropriate growth media while maintaining a constant final concentration of DMSO and added to the wells. After the indicated amount of time cells were harvested by trypsinization. The media, trypsin and PBS wash were collected together to avoid loss of loosely attached or detached cells. Cells were fixed in 4% formaldehyde in PBS for 15 minutes, washed with PBS containing 1% bovine serum albumin (PBS-BSA), and then stored in methanol at −20° C. overnight. Cells were then washed twice in PBS-BSA 0.1% Tween-20, incubated with primary antibodies overnight at 4° C., washed with PBS-BSA 0.1% Tween-20 and incubated for 1 hour with fluorescent-dye conjugated secondary antibodies (diluted 1:200, Alexa Fluor, Molecular Probes) at room temperature for 1 hour. Primary antibodies included anti-phospho-serine 10 histone H3 (clone 3H10, Millipore) and anti-active caspase-3 (clone C92-605, BD Pharmingen). The fixed cells were then washed with PBS-BSA 0.1% Tween-20 and resuspended in PBS containing 1 μg/ml 4,6-diamidino-2-phenylindole (DAPI, Molecular Probes) to stain DNA and analyzed using a BD™ LSRII flow cytometer (Becton Dickinson) and the FlowJo™ software package.
For orientation: A flow cytometer gives signals particle by particle.

The test system of data set [10] is C4-2 CRPC cells expressing histone H2B-mCherry and mEmerald-tubulin. The data set is described as follows: Time-lapse live-cell microscopy and spindle orientation analysis. Type of data set: cell-based. The settings on record: for frequency of division not parallel to the growth surface: live-cell microscopy; for spindle orientation / spindle rotation during mitosis: net angular displacement and cumulative angular distance. As for the experimental part:
C4-2 CRPC cells expressing histone H2B-mCherry and mEmerald-tubulin. were plated in 12-well plates in phenol red free media, the following day drugs were added as indicated and the cells were imaged on a EVOS™ FL Auto Cell Imaging System equipped with an onstage incubator to maintain 37° C., adequate humidity, and 5% CO2. Images were acquired at 15-minute intervals for 72 hours using a 20× objective lens. For the rotation analysis, the angle of the spindles major axis was tracked starting from when it was first apparent, prometaphase, until telophase. The net angular displacement is the total change in angle of the spindle during mitosis from start until finish and is the absolute value of the sum of all stepwise rotations. The cumulative angular distance is the total amount of rotation regardless of direction that occurred during mitosis and is the sum of the absolute value of all rotations.

For data set [11], the target named is PLK1 (Homo sapiens, UniProt P53350). To be noted: cited from earlier work.
PLK1, sequence (P53350 whole entry): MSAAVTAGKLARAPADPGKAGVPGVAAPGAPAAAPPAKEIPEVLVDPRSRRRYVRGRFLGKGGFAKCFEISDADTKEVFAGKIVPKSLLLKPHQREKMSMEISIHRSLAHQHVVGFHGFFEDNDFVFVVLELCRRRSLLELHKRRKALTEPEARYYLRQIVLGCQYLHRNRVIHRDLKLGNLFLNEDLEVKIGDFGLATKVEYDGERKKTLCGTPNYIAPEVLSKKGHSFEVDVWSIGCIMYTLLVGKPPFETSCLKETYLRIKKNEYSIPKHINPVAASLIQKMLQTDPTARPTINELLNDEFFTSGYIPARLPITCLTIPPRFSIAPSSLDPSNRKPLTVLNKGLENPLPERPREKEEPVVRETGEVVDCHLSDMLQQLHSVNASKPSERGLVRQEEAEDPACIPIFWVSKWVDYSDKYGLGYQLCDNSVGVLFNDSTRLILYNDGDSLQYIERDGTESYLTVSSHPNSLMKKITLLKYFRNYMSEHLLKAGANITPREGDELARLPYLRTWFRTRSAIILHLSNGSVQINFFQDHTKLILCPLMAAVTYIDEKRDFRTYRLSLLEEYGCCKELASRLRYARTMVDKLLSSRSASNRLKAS
Data set [12] deals with various human tumor cell lines. To be noted: cited from earlier work.
Data set [13] concerns mouse xenograft models. To be noted: 10 mg/kg and 20 mg/kg on days 1 and 28; cited from earlier work.
Data set [14] deals with several tumor cell lines, including those that express MDR1. The settings on record: including lines that express multidrug-resistant protein 1 (MDR1); cited from earlier work.
Data set [15] has as its target several tyrosine kinases and cyclin-dependent kinase 1 (Cdk1). The settings on record: cited from earlier work.
In data set [16] the test system is Bel-7402, MCF-7, and MIA-PaCa cells xenografts. To be noted: 250 mg/kg; Bel-7402, MCF-7, MIA-PaCa xenografts; cited from earlier work.
Data set [17] concerns BT20 cells xenograft. The settings on record: 200 mg/kg; cited from earlier work.
The conditions of data set [18]: cited from earlier work. The source holds these as a separate data set.
In data set [19] the test system is lung cancer cell line H82. To be noted: read-out: anti-proliferative IC50; cited from earlier work.
The test system of data set [20] is colorectal cancer cell HT-29. The settings on record: read-out: anti-proliferative IC50; cited from earlier work.
For data set [21], the system named is breast cancer cell MDA-MB-468. To be noted: read-out: anti-proliferative IC50; cited from earlier work.
Data set [22] concerns prostate cancer cell PC3. The settings on record: read-out: anti-proliferative IC50; cited from earlier work.
Data set [23] relates to skin cancer cell A375. To be noted: read-out: anti-proliferative IC50; cited from earlier work.
Data set [24] relates to HT-29 human colorectal tumors. The settings on record: HT-29 tumors in nude mouse, cited from earlier work.
For data set [25] the following is noted: preclinical, cited from earlier work.
For data set [26], the system named is cell mitosis. To be noted: read-out: EC50, inhibition of cell mitosis; cited from earlier work.
Data set [27] has as its system Cdc25C-T96 phosphorylation. The settings on record: read-out: EC50, Cdc25C-T96 phosphorylation; cited from earlier work.
Data set [28] relates to xenograft tumor models. To be noted: under proper dose scheduling; cited from earlier work.
For data set [29] the following is noted: cited from earlier work. The source holds these as a separate data set.

Each structure is given as a SMILES string. “Also recorded” adds a separate entry of the source. Read-outs that look alike come from different tables or passages of the source.

By IC50 is commonly meant the concentration that gives 50% inhibition. In general, EC50 refers to the concentration giving half of the maximal effect.

As to `CC[C@@H]1C(=O)N(C)c2cnc(Nc3ccc(C(=O)N[C@H]4CC[C@H](N5CCN(CC6CC6)CC5)CC4)cc3OC)nc2N1C(C)C` [BI6727, volasertib], the “tumor cell killing of PLK inhibitor combined with abiraterone, vs expected additive” value in data set [1] is listed as “more than additive”. Further, the “inhibitory activity against a panel of >50 other kinases” value in data set [2] is on record as “no inhibitory activity”. For the same molecule, the “growth of multiple human carcinoma xenografts” value in [3] is given as “significantly inhibits the growth”. In addition, the “MTD in combination with afatinib” value in data set [4] is on record as 300 mg. Moreover, in data set [5] (based on overall tolerability), the “recommended dose for further development” value is on record as 300 mg. Besides, in [5] (i.v. once every 3 weeks, advanced solid tumors), the MTD is on record as 400 mg. The DLTs entry in data set [5] (i.v. once every 3 weeks, dose escalation 12-450 mg) was “neutropenia, thrombocytopenia, and febrile neutropenia”.
In the case of `COc1ccc(S(=O)(=O)N(C(C)=O)c2ccccc2/C=C/c2cc[n+]([O-])cc2)cc1` [HMN-214], in data set [6] (at 9.9 mg/m^2/d), the dose-limiting toxicities entry is “severe myalgia/bone pain syndrome and hyperglycemia”. The “maximum tolerated dose and recommended dose” value in data set [6] (continuous 21-day dosing schedule every 28 days) is 8.0 mg/m^2/d. Moreover, the DLTs result in data set [7] was “prolonged neutropenia, febrile neutropenia, neutropenic sepsis, electrolyte disturbance, neuropathy, and myalgia”.
Regarding `CC(=O)O[C@H]1CC[C@@]2(C)C(=CC[C@@H]3[C@@H]2CC[C@]2(C)C(c4cccnc4)=CC[C@@H]32)C1` [Abiraterone acetate, abiraterone acetate], the solubility in water result in data set [8] is recorded as “practically insoluble”.
For the molecule `C[C@]12CC[C@H](O)CC1=CC[C@@H]1[C@@H]2CC[C@]2(C)C(c3cccnc3)=CC[C@@H]12` [abiraterone], in data set [9], the “effect on apoptotic cell death (cleaved Caspase-3 positive cells) after onvansertib” value is “exacerbates subsequent apoptotic cell death” and the “effect on mitotic arrest (pHH3 positive cells) caused by PLK1 inhibitor onvansertib” value is on record as “dramatically increased the frequency of mitotic arrest; also recorded: enhances the mitotic arrest”. In data set [10], the “frequency of division not parallel to the growth surface” value is given as “increased” and the “spindle orientation / spindle rotation during mitosis” value is “disrupted proper spindle orientation”.
Turning to `COc1ccc(S(=O)(=O)Nc2ccccc2/C=C/c2cc[n+]([O-])cc2)cc1` [HMN-176], the “enzymatic activity of PLK1” value in data set [11] (affects subcellular distribution of PLK1 instead) was “does not directly inhibit”. In addition, the “cytotoxicity toward various human tumor cell lines” value in data set [12] is given as “potent cytotoxicity”. In data set [13], the “antitumor activity in mouse xenograft models” value is listed as “potent antitumor activity”.
On to `CNC(=O)c1ccc(N2C(=S)N(c3ccc(C#N)c(C(F)(F)F)c3)C(=O)C2(C)C)cc1F` [enzalutamide], for which the “more than additive effect with PLK1 inhibitors” value in [1] (C4-2 cells, enzalutamide combined with onvansertib or BI2536) is given as “not observed”. Further, the “effect on mitotic arrest (pHH3 positive cells) caused by PLK1 inhibitor onvansertib” value in [9] was “does not enhance the mitotic arrest”. Besides, in data set [10], the “frequency of division not parallel to the growth surface” value is reported as “did not result in these phenotypes” and the “spindle orientation / spindle rotation during mitosis” value is reported as “did not result in these phenotypes”.
Take `COc1cc(C(=O)NC2CCN(C)CC2)c(F)cc1Nc1ncc2c(n1)N(C1CCCC1)CC(F)(F)C(=O)N2C` [TAK-960]: in data set [14], the “activity in tumor cell lines” value is “shown activity”.
Turning to `COc1cc(OC)c(/C=C/S(=O)(=O)Cc2ccc(OC)c(NCC(=O)[O-])c2)c(OC)c1.[Na+]` [ON 01910, rigosertib], the IC50 in [15] is 0.018 to 0.26 µM. The tumor growth result in data set [16] is “inhibited tumor growth”; in data set [17], “inhibition of tumor growth”. For the same molecule, in data set [18] (at the MTD), the DLT entry was “Grade 3 abdominal pain”. Moreover, in data set [18] (i.v., days 1, 4, 8, 11, 15, and 18 in 28-day cycles), the MTD is listed as 3,120 mg.
On to `COc1cc(C(=O)NC2CCN(C)CC2)ccc1NC1NCC2C(N1)N(C1CCCC1)CC(F)(F)C(=O)N2C` (stereo not drawn) [RO3280], for which the IC50 is 0.003 µM in [11]; 0.005 µM in data set [19]; 0.01 µM in data set [20]; 0.019 µM in data set [21]; 0.012 µM in [22]; 0.07 µM in data set [23]. The antitumor activity result in [24] (dosed more frequently) is “complete tumor regression”. Moreover, in data set [24] (once weekly at 40 mg/kg), the tumor growth inhibition is 72%.
As to `Cc1ncc(CCCN(C)C)cc1Nc1ncc2c(n1)-c1ccc(C(F)(F)F)cc1NC(=S)C2` [MLN0905], the maximum tolerated dose is on record as 6.25 mg/kg in data set [25] (QD (daily) schedule) and 14.5 mg/kg in [25] (QD×3/wk (3-days on/4-days off) schedule). Further, the EC50 was 0.009 µM in data set [26] and 0.029 µM in data set [27].
As for `C[C@@H](Oc1cc(-n2cnc3ccc(CN4CCN(C)CC4)cc32)sc1C(N)=O)c1ccccc1C(F)(F)F` [GSK461364], in data set [1], the “tumor cell killing of PLK inhibitor combined with abiraterone, vs expected additive” value is listed as “more than additive”. In addition, the “effect in xenograft tumor models” value in data set [28] is on record as “tumor regression”. Further, the DLTs entry in data set [29] (i.v., schedules A and B, 28-day cycle) was “grade 4 neutropenia, sepsis, and pulmonary embolism”. Besides, in [29] (in vivo), the “incidence of venous thrombotic emboli (VTE)” value is 20%. Also, in [29] (intravenously, schedule A (days 1, 8, and 15)), the “final recommended phase II dose” value was 225 mg.

These data come from patent publication US20220127682A1, “SELECTION AND TREATMENT OF CANCER WITH COMBINATION THERAPIES” (Massachusetts Institute of Technology, priority 2020, published 2022).
